For one data set, the target named is RNA. The experiment in a line: Binding affinity to CAG repeat RNA (unknown origin) assessed as dissociation constant. Type of data set: nucleic-acid assay.
A further data set has as its target T1, Caspase-6 (Homo sapiens, UniProt P55212).
T1 sequence (P55212 whole entry): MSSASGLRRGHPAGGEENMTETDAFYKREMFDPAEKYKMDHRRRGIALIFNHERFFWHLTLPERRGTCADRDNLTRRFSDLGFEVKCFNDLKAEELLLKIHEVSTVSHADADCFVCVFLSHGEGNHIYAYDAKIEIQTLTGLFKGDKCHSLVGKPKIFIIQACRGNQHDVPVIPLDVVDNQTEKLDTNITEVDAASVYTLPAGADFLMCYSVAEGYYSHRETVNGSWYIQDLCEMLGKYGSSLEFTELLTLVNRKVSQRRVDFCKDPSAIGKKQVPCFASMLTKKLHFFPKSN
The experiment in a line: Inhibition of Caspase-6 activity (unknown origin) by FRET assay.

Data set [1] concerns the target T2, Huntingtin (Homo sapiens, UniProt P42858). The experiment in a line: Inhibition of HTT (unknown origin) aggregation at 5 uM relative to control.
The subject of another data set is COS-7. The experiment in a line: Cytotoxicity against african green monkey COS-7 cells assessed as reduction in cell growth. Type of data set: toxicity, cell-based. Details: scale not given: the % may be the effect or the level left. To be noted: chlorocebus aethiops.
Data set [2] has as its target T2, Huntingtin. The experiment in a line: Inhibition of HTT (unknown origin) by ELISA method.
The target of data set [3] is T2, Huntingtin. The experiment in a line: Binding affinity to HTT (unknown origin) assessed as dissociation constant by surface plasmon resonance assay.
A short description of data set [4]: Inhibition of YFP aggregation in african green monkey COS-7 cells at 70 nM relative to control. The following applies: Chlorocebus aethiops. Type of data set: functional.

In general, Kd refers to the constant that tells how readily two partners part at equilibrium. Usually IC50 stands for the concentration needed to halve the response being measured. As a reminder, the inhibition is how much of the control response was suppressed.

T2 sequence (P42858 whole entry): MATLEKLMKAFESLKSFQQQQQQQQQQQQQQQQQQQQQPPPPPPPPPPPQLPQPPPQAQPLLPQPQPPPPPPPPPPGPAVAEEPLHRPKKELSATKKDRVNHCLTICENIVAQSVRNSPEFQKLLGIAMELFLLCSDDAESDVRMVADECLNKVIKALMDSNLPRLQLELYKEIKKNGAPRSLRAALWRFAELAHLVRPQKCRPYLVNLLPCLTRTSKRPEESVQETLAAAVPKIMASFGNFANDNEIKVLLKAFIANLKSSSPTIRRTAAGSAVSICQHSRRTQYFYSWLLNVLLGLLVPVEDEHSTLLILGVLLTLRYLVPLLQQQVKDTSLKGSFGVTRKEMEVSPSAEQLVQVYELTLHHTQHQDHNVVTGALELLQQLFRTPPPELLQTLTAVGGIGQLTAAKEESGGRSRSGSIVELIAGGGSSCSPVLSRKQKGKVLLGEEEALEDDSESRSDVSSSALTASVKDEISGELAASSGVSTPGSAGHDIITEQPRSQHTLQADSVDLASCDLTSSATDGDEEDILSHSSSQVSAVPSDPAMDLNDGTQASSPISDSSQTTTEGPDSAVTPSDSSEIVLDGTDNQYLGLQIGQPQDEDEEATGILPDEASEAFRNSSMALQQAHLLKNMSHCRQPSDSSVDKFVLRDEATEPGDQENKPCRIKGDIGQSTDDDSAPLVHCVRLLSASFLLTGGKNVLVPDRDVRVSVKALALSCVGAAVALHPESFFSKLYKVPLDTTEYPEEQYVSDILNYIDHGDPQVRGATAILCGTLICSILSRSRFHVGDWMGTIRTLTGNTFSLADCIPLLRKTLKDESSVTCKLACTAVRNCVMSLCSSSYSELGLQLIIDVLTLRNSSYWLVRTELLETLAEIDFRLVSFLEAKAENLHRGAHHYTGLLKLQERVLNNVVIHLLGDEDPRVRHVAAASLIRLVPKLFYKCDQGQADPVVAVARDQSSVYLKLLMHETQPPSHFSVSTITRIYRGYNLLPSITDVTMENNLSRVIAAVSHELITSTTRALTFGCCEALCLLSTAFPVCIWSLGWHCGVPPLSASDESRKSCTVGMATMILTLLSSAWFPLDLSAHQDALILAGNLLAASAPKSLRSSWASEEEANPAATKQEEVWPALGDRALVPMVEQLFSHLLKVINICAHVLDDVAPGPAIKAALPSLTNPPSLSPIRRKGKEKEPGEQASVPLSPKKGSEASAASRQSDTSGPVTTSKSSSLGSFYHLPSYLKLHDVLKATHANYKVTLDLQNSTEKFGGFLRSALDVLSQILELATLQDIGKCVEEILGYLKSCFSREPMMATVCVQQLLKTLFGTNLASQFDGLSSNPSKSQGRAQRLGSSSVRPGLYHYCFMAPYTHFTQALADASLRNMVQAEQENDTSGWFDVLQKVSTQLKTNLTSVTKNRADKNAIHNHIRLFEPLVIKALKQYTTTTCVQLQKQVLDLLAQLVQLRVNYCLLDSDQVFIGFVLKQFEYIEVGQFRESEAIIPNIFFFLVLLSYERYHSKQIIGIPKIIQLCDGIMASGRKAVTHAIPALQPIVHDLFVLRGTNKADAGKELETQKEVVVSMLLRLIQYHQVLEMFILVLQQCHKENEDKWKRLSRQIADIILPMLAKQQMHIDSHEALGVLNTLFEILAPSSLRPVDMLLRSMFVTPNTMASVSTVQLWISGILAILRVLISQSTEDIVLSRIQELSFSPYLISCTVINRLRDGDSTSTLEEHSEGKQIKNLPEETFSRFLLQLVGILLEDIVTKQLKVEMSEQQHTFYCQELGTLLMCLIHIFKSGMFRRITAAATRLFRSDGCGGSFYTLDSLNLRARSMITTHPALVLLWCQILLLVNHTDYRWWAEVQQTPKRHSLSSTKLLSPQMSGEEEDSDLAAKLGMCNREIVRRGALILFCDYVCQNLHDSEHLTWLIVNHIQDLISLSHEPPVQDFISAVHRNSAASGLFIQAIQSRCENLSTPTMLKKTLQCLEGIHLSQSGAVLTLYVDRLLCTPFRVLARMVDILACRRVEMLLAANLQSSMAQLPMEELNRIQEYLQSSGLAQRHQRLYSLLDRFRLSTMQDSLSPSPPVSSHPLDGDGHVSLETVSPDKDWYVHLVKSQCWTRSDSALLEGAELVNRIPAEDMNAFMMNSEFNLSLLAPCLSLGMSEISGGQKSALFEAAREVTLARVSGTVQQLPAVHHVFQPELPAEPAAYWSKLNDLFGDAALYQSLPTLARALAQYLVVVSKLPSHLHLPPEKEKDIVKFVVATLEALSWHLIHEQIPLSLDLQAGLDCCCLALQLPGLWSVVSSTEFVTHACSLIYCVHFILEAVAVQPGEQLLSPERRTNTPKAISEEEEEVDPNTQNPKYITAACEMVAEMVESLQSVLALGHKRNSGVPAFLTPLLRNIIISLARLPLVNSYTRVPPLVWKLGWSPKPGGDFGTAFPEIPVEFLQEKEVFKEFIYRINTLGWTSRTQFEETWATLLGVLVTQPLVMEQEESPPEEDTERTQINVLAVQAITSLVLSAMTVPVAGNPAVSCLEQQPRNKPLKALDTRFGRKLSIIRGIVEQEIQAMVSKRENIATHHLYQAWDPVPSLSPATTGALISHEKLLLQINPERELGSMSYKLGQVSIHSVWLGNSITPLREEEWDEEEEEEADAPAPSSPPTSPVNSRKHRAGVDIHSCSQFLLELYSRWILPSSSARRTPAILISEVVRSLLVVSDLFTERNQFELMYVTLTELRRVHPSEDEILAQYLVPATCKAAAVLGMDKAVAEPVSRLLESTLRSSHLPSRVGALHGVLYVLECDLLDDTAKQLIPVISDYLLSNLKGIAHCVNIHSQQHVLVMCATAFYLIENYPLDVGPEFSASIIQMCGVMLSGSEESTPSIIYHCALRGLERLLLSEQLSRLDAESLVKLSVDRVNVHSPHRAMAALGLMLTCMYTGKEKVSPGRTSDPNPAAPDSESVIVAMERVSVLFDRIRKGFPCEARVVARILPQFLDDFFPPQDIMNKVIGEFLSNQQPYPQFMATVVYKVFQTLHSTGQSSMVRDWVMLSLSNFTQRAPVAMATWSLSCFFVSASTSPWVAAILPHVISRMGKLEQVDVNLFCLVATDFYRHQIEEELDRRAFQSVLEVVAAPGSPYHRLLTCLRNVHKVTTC

Regarding Ac-DGKSKGIAYIEFK-NH2, at RNA, the Kd was determined as 0.33 nM.
On the same count and under the same terms, then H-AEIRLVSKDGKSKGIAYIEFK-OH, with 660 nM; and H-DGKSKGIAYIEFK-OH, with 8.37 nM.
On Caspase-6, H-GRKKRRQRRRPPQSSEIVLDGTDN-OH gave a half-maximal inhibitory concentration (IC50) of 12.1 nM.
At Huntingtin [1], H-MATLEKLMKAFESLKSF-OH displayed an inhibition of 20%.
For H-RQIKIWFQNRRMKWKKSNWKWWPGIFD-OH, the Activity with COS-7 is recorded as 30.2%.
For the substance H-SNWKWWPGIFD-OH, the concentration for half-maximal inhibition (IC50) against Huntingtin [2] amounted to 5000 nM. Further, the Kd at Huntingtin [3] was 5700 nM.
The substance H-WKWWPGIFDYGRKKRRQRRR-OH returned an inhibition at 0.07 µM in data set [4] of 81.2%.

(Values after ChEMBL document CHEMBL5537175, “Unraveling the Puzzle of Therapeutic Peptides: A Promising Frontier in Huntington's Disease Treatment” (J Med Chem, 2024).)
